Data: patent US7285556B2, “Thienopyrimidine-based inhibitors of the src family” (Board of Regents, The University of Texas Systems, priority 2000, dated 2007)
Like-named read-outs stand apart in the source and are kept apart here.

Assays:
[1] = target: T1, N12 neuronal Src variant (Homo sapiens, UniProt P12931); test: Testing against neuronal Src variant N12; assay type: biochemical; conditions: Table 5
T1 construct: made in house
Procedure: (§1) The tyrosine kinase activity of Src, Csk and FGFr was determined using poly E4Y and ^32P-ATP. Briefly, enzymes were assayed in a reaction mixture consisting of 0.15 M EPPS-NaOH (pH 8.0) with 6 mM MgCl2, 0.2 mM γ^32P-ATP (0.2-0.4 mCi/μmol), 10% glycerol, 0.1% Triton X-100, and poly E4Y. Poly E4Y is a synthetic peptide whose phosphorylation is measured in this assay by the addition of the radioactively labeled phosphate from the ATP (Budde et al., 1995). […] When ATP was varied (0, 50, 100 and 250 μM), poly E4Y was kept constant at 150 μg/ml.
(§2) Thienopyrimidine-based compounds were also tested against neuronal Src variants (Table 5).

[2] = target: T2, Recombinant human Src (Homo sapiens, UniProt P12931); test: Src tyrosine kinase activity, poly E4Y and 32P-ATP; assay type: biochemical
T2 construct: made in house; host or cells: baculovirus-insect cell system
Method in brief: (§3)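 Recombinant GST-Csk (E. coli) or baculovirus-expressed human Src assayed on poly E4Y in 0.15 M EPPS-NaOH pH 8.0, 6 mM MgCl2, 0.2 mM γ32P-ATP, 10% glycerol, 0.1% Triton X-100. Read-out is 32P incorporation into poly E4Y; for ATP variation (0–250 μM), poly E4Y held at 150 μg/ml.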

[3] = tested on: colon adenocarcinoma cell line, HT29; test: MTT reduction assay, in vitro drug cytotoxicity; assay type: cell-based; conditions: Homo sapiens, HT-29, 72 hours incubation, read-out: IC50, HT-29 cells
Procedure: Compounds synthesized using the methods described above were tested using a standard MTT assay (Green et al., 1984) against a colon adenocarcinoma cell line, HT29. A human ovarian cancer cell line, SKOv-3 may also be used. The use of an MTT assay using these cells is recognized as an accepted assay for anti-tumor activity by those in the field. The in vitro activity of Src inhibitors of the present invention against diseases other than cancer may be assayed by methods known to those of skill in the art.
In vitro drug cytotoxicities against a colon adenocarcinoma cell line, HT29 was assessed by using the MTT reduction assay, as previously reported (Green et al., 1984). A human ovarian cancer cell line, SKOv-3 may also be used. The MTT dye was obtained from Sigma Chemical Co. (St. Louis, Mo.). The drugs were dissolved in DMSO:PEG 300 (1:1). Neither DMSO or PEG 300 are toxic to cells at a concentration of 31.6 μg/ml. […] The optical density of each well was then measured with a microplate spectrophotometer at a wavelength of 570 nm with a reference cell at 650 nm. The percent cell viability was calculated by the following equation: % cell viability=(OD treated wells/OD control wells)×100
where OD is the mean optical density from four determinations. The percent cell viability values were plotted against the drug concentrations used, and the IC50 was calculated from the curve.

[4] = target: T3, N23 neuronal Src variant (Homo sapiens, UniProt P12931); test: Testing against neuronal Src variant N23; assay type: biochemical; conditions: Table 5
T3 construct: made in house
Procedure: as §1, §2

[5] = target: FGF receptor (FGFr) (Homo sapiens, UniProt P11362); test: FGFr tyrosine kinase activity, poly E4Y and 32P-ATP; assay type: biochemical
Procedure: as §1, with “Recombinant human Src was expressed using the baculovirus-insect cell system and purified as published (Budde et al., 1993 and 2000). Recombinant Csk and the FGF receptor (FGFr) were expressed as glutathione-S-transferase fusion proteins using the pGEX expression vector and E. coli, and purified as described (Sun & Budde, 1995). The” for “The”, “μg/ml. […] From this screening, the thienopyrimidine-based scaffold was identified as one of the chemical structures to pursue. […] These analogues were screened against Src, Csk and FGFr (Table 2, Table 3, and Table 4).” for “μg/ml.”

[6] = target: T4, Csk (Homo sapiens, UniProt P41240); test: Csk tyrosine kinase activity, poly E4Y and 32P-ATP; assay type: biochemical
T4 construct: GST (glutathione-S-transferase) (N); made in house; host or cells: E. coli (pGEX vector)
Method in brief: as §3

[7] = tested on: osteoclastic bone resorption; conditions: Rodan and Martin, 2000; cited from earlier work
[8] = Table 2, read-out: Src IC50 (especially good inhibitors of Src)
[9] = Table 5, N6 = Src, read-out: N6(Src) IC50
[10] = read-out: IC50 (preferred compounds for treatment of Src family-related disease)
[11] = screening assay, 50 μg/ml poly E4Y, 0.2 mM 32P-ATP
[12] = Table 4, NI = no inhibition upto 50 ug/mL

T4 sequence (P41240 whole entry, species assumed): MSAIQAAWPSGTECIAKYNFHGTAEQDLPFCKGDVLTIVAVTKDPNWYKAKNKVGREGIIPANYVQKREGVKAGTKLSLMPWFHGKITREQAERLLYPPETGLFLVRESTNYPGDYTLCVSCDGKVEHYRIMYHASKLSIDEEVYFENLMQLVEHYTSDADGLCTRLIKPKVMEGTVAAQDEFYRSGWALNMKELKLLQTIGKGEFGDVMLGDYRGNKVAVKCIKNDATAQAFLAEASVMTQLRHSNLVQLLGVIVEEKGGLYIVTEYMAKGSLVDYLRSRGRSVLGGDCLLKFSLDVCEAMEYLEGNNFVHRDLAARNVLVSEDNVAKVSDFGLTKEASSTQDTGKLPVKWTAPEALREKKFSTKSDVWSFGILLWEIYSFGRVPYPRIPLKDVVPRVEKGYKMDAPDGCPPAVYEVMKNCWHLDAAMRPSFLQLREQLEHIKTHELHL
Chain of FGF receptor (FGFr) (P11362 398-822): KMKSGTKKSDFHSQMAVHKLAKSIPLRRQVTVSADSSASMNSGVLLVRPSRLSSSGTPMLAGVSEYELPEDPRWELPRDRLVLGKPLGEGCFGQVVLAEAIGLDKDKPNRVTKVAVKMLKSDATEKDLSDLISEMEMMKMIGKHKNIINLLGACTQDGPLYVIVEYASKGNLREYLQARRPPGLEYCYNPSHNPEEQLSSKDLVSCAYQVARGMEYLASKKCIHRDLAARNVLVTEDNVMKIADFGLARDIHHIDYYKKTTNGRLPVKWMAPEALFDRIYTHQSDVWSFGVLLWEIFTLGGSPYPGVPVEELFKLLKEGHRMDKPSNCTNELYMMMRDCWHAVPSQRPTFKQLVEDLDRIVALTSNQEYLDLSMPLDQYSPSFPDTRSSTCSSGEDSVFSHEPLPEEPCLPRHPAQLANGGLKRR

`Cc1csc2c(NN=Cc3cccnc3)ncnc12` [Compound 27, 3-Pyridinecarboxaldehyde(7-methylthieno[3,2-d]pyrimidin-4-yl)hydrazone] gave an IC50 [1] of 0.59 µM, an IC50 [2, 8] of no more than 2 µM and an IC50 [2, 9] of 0.37 µM. The IC50 [2, 10] was less than 2 µM, the IC50 [3] was 13 µM and the IC50 [4] was 0.28 µM.
With `C(=NNc1ncnc2cc(-c3ccsc3)sc12)c1cccnc1` [Compound 223, 3-Pyridinecarboxaldehyde(6-(3-thienyl)thieno[3,2-d]pyrimidin-4-yl)hydrazone] the “FGFr IC50” value [5, 11] was “NI (NI = no inhibition up to 50 ug/mL)” and the “Csk IC50” value [6, 11] was “NI (NI = no inhibition up to 50 ug/mL)”.
With “1-Hydroxy-1-methyl-1,1-di-[4-carboxybenzaldehyde(7-methylthieno[3,2-d]pyrimidin-4-yl)hydrazone]methane [Compound 500]” the IC50 ([2]; Table 4, read-out: Src IC50) was 5.3 µM, the “FGFr IC50” value [5, 12] was “NI (NI = no inhibition upto 50 ug/mL)” and the IC50 [6, 12] was 57 µM.
With `CCO.Cc1csc2c(NN=Cc3cccs3)ncnc12.Cc1csc2c(NN=Cc3cccs3)ncnc12` [Compound 501] the IC50 ([2]; Table 4, read-out: Src IC50) was 10.7 µM, the “FGFr IC50” value [5, 12] was “NI (NI = no inhibition upto 50 ug/mL)” and the “Csk IC50” value [6, 12] was “NI (NI = no inhibition upto 50 ug/mL)”.
For `C(=NNc1ncnc2cc(-c3ccccc3)sc12)c1cccnc1` [Compound 199, 3-Pyridinecarboxaldehyde(6-phenylthieno[3,2-d]pyrimidin-4-yl)hydrazone], the IC50 [1] was 0.23 µM, the IC50 [2, 8] was no more than 2 µM and the IC50 [2, 9] was 0.15 µM. The IC50 [2, 10] was less than 2 µM, the IC50 [4] was 0.12 µM and the IC50 [6, 11] was greater than 151 µM.
For `CO[C@H]1[C@@H](OC)C[C@H](C)[C@@H](OC)C2=CC(=O)C=C(NC(=O)/C(C)=C/C=C\[C@H](OC)[C@@H](OC(N)=O)/C(C)=C/[C@@H]1C)C2=O` [Herbimycin A], the “osteoclastic bone resorption in vivo” value [7] is given as “inhibits osteoclastic bone resorption”.
In the case of “1-Hydroxy-1-methyl-1,1-di-[3-hydroxy-4-methoxybenzaldehyde(7-methylthieno[3,2-d]pyrimidin-4-yl)hydrazone]methane [Compound 502]”, the IC50 ([2]; Table 4, read-out: Src IC50) is reported as 8.7 µM, the “FGFr IC50” value [5, 12] is reported as “NI (NI = no inhibition upto 50 ug/mL)” and the “Csk IC50” value [6, 12] is reported as “NI (NI = no inhibition upto 50 ug/mL)”.
With `Cc1csc2c(NN=Cc3cccs3)ncnc12` [Compound 29, 2-Thiophenecarboxaldehyde(7-methylthieno[3,2-d]pyrimidin-4-yl)hydrazone] the IC50 [1] was 1.17 µM, the IC50 [2, 8] was no more than 2 µM and the IC50 [2, 9] was 0.95 µM. For the same compound, the IC50 [2, 10] was less than 2 µM, the IC50 [4] was 0.84 µM and the IC50 [6, 11] was greater than 182 µM.
In the case of `Cc1csc2c(NN=Cc3cccc(Br)c3)ncnc12` [Compound 57, 3-Bromobenzaldehyde(7-methylthieno[3,2-d]pyrimidin-4-yl)hydrazone], the “FGFr IC50” value [5, 11] is reported as “NI (NI = no inhibition up to 50 ug/mL)” and the “Csk IC50” value [6, 11] is reported as “NI (NI = no inhibition up to 50 ug/mL)”.
For `Cc1csc2c(NN=Cc3ccc(C(F)(F)F)cc3)ncnc12` [Compound 9, 4-Trifluoromethylbenzaldehyde(7-methylthieno[3,2-d]pyrimidin-4-yl)hydrazone], the “FGFr IC50” value [5, 11] was “NI (NI = no inhibition up to 50 ug/mL)” and the “Csk IC50” value [6, 11] was “NI (NI = no inhibition up to 50 ug/mL)”.
In the case of `COc1ccc(C=NNc2ncnc3c(C)csc23)cc1O` [Compound 51, 3-Hydroxy-4-methoxybenzaldehyde(7-methylthieno[3,2-d]pyrimidin-4-yl)hydrazone], the IC50 [1] is reported as 1.75 µM, the IC50 [2, 8] is reported as no more than 2 µM and the IC50 [2, 9] is reported as 0.51 µM. It also gave an IC50 [2, 10] of less than 2 µM and an IC50 [4] of 0.51 µM.
With `CCO.Cc1csc2c(NN=Cc3cccnc3)ncnc12.Cc1csc2c(NN=Cc3cccnc3)ncnc12` [Compound 499] the IC50 ([2]; Table 4, read-out: Src IC50) was 8.6 µM, the “FGFr IC50” value [5, 12] was “NI (NI = no inhibition upto 50 ug/mL)” and the “Csk IC50” value [6, 12] was “NI (NI = no inhibition upto 50 ug/mL)”.
Compound `CS(=O)(=O)c1ccc(-c2cc3ncnc(NN=Cc4cccnc4)c3s2)cc1` [Compound 290, 3-Pyridinecarboxaldehyde(6-(4-methanesulphonylphenyl)thieno-[3,2-d]pyrimidin-4-yl)hydrazone] has an IC50 [2, 8] of no more than 2 µM, an IC50 [2, 10] of less than 2 µM and an IC50 [6, 11] greater than 122 µM.
Compound `Cc1csc2c(NN=Cc3cccc(Cl)c3)ncnc12` [Compound 19, 3-Chlorobenzaldehyde(7-methylthieno[3,2-d]pyrimidin-4-yl)hydrazone] has an IC50 [2, 8] of no more than 2 µM, an IC50 [2, 10] of less than 2 µM and an IC50 [6, 11] greater than 165 µM.
Work on `COc1ccc(C=NNc2ncnc3c(C)c(-c4ccc(CO)cc4)sc23)cc1O` [Compound 439, 3-Hydroxy-4-methoxybenzaldehyde(6-(4-hydroxymethylphenyl)-7-methylthieno[3,2-d]pyrimidin-4-yl)hydrazone] yielded an IC50 [2, 8] of no more than 2 µM, an IC50 [2, 10] of less than 2 µM and an IC50 [6, 11] greater than 119 µM.
For `Cc1csc2c(NN=Cc3cccc(C#N)c3)ncnc12` [Compound 122, 3-Cyanobenzaldehyde(7-methylthieno[3,2-d]pyrimidin-4-yl)hydrazone], the IC50 [2, 8] was no more than 2 µM, the IC50 [2, 10] was less than 2 µM and the IC50 [6, 11] was greater than 170 µM.
`CCOc1cccc(C=NNc2ncnc3c(C)csc23)c1` [Compound 138, 3-Ethoxybenzaldehyde(7-methylthieno[3,2-d]pyrimidin-4-yl)hydrazone] showed an IC50 [2, 8] of no more than 2 µM, an IC50 [2, 10] of less than 2 µM and an IC50 [6, 11] greater than 160 µM.
